Assay results as given in patent US10774064B2 (Cadent Therapeutics, Inc., priority 2016, dated 2020).

Each compound was assayed against T1, small-conductance Ca2+-activated K+ channels (SK channels, subtype 2) (Homo sapiens, UniProt Q9H2S1) (assay: whole-cell patch-clamp of ionic current through SK2 channels in HEK293 cells (SC100)). Conditions: whole-cell patch-clamp, HEK293 cells expressing SK2 channels; concentration that increases the basal current by 100%.
T1 construct: expressed in transfected cells; host or cells: HEK293
Assay type: cell-based
In short: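 Whole-cell patch-clamp recording of current in HEK293 cells expressing SK2 channels. SC100 is the compound concentration that increases basal current by 100%.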

Row | Structure (SMILES) | SC100 (μM)
1 | Cc1ccn(-c2nc(NC34CC5CC(CC(O)(C5)C3)C4)cc(N3CCOCC3)n2)n1 [NSSy6511] | + (+ means >1 uM)
2 | Cc1ccn(-c2cc(N3CCOCC3)cc([C@@H](O)c3ccc(F)cc3)n2)n1 [NSSy6513, (S)-(4-fluorophenyl)(6-(3-methyl-1H-pyrazol-1-yl)-4-morpholinopyridin-2-yl)methanol] | + (+ means >1 uM)
3 | Cc1ccn(-c2cc(N3CCOCC3)cc([C@H](O)c3ccc(F)cc3)n2)n1 [NSSy6514, (R)-(4-fluorophenyl)(6-(3-methyl-1H-pyrazol-1-yl)-4-morpholinopyridin-2-yl)methanol] | + (+ means >1 uM)
4 | COc1cc(-n2nc(C)cc2C)nc(NC2CCC(F)(F)CC2)n1 [NSSy6519, N-(4,4-difluorocyclohexyl)-4-(3,5-dimethyl-1H-pyrazol-1-yl)-6-methoxy pyrimidin-2-amine] | ++ (++ means 200 nM-1000 nM)
5 | Cc1ccn(-c2cc(N3CC4(COC4)C3)nc(NC3CCC(F)(F)CC3)n2)n1 [NSSy6522] | ++ (++ means 200 nM-1000 nM)
6 | Cc1ccnn1-c1cc(N2CC3(COC3)C2)nc(NC2CCC(F)(F)CC2)n1 [NSSy6523] | + (+ means >1 uM)
7 | Cc1ccnn1-c1cc(N2CCOCC2)nc(NC2CCC(F)(F)CC2)n1 [NSSy6525] | + (+ means >1 uM)
8 | Cc1ccn(-c2nc(NC3CCC(C#N)CC3)cc(N3CCOCC3)n2)n1 (stereo not drawn) [NSSy6526] | + (+ means >1 uM)
9 | COC1CCC(Nc2cc(N3CCOCC3)nc(-n3ccc(C)n3)n2)CC1 (stereo not drawn) [NSSy6529, N-(4-methoxycyclohexyl)-2-(3-methyl-1H-pyrazol-1-yl)-6-morpholinopyrimidin-4-amine] | + (+ means >1 uM)
10 | Cc1ccn(-c2nc(N[C@H]3CC[C@H](C(N)=O)CC3)cc(N3CCOCC3)n2)n1 [NSSy6539] | + (+ means >1 uM)
11 | Cc1ccn(-c2nc(NC3CCC(N(C)C)CC3)cc(N3CCOCC3)n2)n1 (stereo not drawn) [NSSy6540] | + (+ means >1 uM)
12 | Cc1ccn(-c2nc(NC3CCC(C(N)=O)CC3)cc(N3CCOCC3)n2)n1 (stereo not drawn) [NSSy6541] | + (+ means >1 uM)
13 | Cc1ccn(-c2nc(NC3CCC(N)CC3)cc(N3CCOCC3)n2)n1 (stereo not drawn) [NSSy6550] | + (+ means >1 uM)
14 | Cc1csc(-c2cc(N3CC4(COC4)C3)nc(NC3CCC(F)(F)CC3)n2)n1 [NSSy6558, N-(4,4-difluorocyclohexyl)-4-(4-methylthiazol-2-yl)-6-(2-oxa-6-azaspiro [3.3]heptan-6-yl)pyrimidin-2-amine] | ++ (++ means 200 nM-1000 nM)
15 | Cc1csc(-c2cc(C(O)c3ncco3)cc(NC3CCC(F)(F)CC3)n2)n1 (stereo not drawn) [NSSy6563] | ++ (++ means 200 nM-1000 nM)
16 | Cc1ccn(-c2cc(N3CCOCC3)cc(NC3CCC(F)(F)CC3)n2)n1 [NSSy6573] | ++ (++ means 200 nM-1000 nM)
17 | COc1cc(-n2ccc(C)n2)nc(NC2CCC(F)(F)CC2)n1 [NSSy6574] | + (+ means >1 uM)
18 | Cc1ccn(-c2cc(C(O)c3nnc(C)o3)cc(NC3CCC(F)(F)CC3)n2)n1 (stereo not drawn) [NSSy6576] | ++ (++ means 200 nM-1000 nM)
19 | Cc1ccn(-c2cc(N3CC4(CCC4)C3)nc(NC3CCC(F)(F)CC3)n2)n1 [NSSy6580] | + (+ means >1 uM)

Row | Structure (SMILES) | SC100 (μM)
20 | Cc1ccn(-c2cc(N3CCC4(CCOCC4)C3)nc(NC3CCC(F)(F)CC3)n2)n1 [NSSy6581] | + (+ means >1 uM)
21 | Cc1ccn(-c2cc(N3CC4CCCC4C3)nc(NC3CCC(F)(F)CC3)n2)n1 (stereo not drawn) [NSSy6584] | + (+ means >1 uM)
22 | Cc1ccn(-c2cc(N3CC4COCC4C3)nc(NC3CCC(F)(F)CC3)n2)n1 (stereo not drawn) [NSSy6585] | + (+ means >1 uM)
23 | Cc1cc(-c2nc(C)cs2)nc(NC2CCC(F)(F)CC2)n1 [NSSy6590] | ++ (++ means 200 nM-1000 nM)
24 | Cc1cc(-n2ccc(C(F)(F)F)n2)nc(NC2CCC(F)(F)CC2)n1 [NSSy6591] | + (+ means >1 uM)
25 | Cc1cc(-n2nc(C)cc2C)nc(NC2CCC(F)(F)CC2)n1 [NSSy6593] | ++ (++ means 200 nM-1000 nM)
26 | CC(=O)N1CCN(c2cc(-c3nc(C)cs3)nc(NC3CCC(F)(F)CC3)n2)CC1 [NSSy6598, 1-(4-(2-((4,4-difluorocyclohexyl)amino)-6-(4-methylthiazol-2-yl)pyrimidin-4-yl)piperazin-1-yl)ethan-1-one] | ++ (++ means 200 nM-1000 nM)
27 | CC(=O)N1CCN(c2cc(-n3ccc(C(F)(F)F)n3)nc(NC3CCC(F)(F)CC3)n2)CC1 [NSSy6607] | ++ (++ means 200 nM-1000 nM)
28 | COC(C)c1cc(-n2nc(C)cc2C)nc(NC2CCC(F)(F)CC2)n1 (stereo not drawn) [NSSy6612] | + (+ means >1 uM)
29 | COC(C)c1cc(-n2ccc(C(F)(F)F)n2)nc(NC2CCC(F)(F)CC2)n1 (stereo not drawn) [NSSy6613] | + (+ means >1 uM)
30 | CC(O)c1cc(-n2ccc(C(F)(F)F)n2)nc(NC2CCC(F)(F)CC2)n1 (stereo not drawn) [NSSy6614] | + (+ means >1 uM)
31 | CCOc1cc(-n2ccc(C)n2)nc(NC2CCC(F)(F)CC2)n1 [NSSy6625] | + (+ means >1 uM)
32 | CC(=O)N1CCN(c2cc(-n3ccc(C)n3)nc(NC3CCC(F)(F)CC3)n2)CC1 [NSSy6629, 1-(4-(2-((4,4-difluorocyclohexyl)amino)-6-(3-methyl-1H-pyrazol-1-yl)pyrimidin-4-yl)piperazin-1-yl)ethan-1-one] | ++ (++ means 200 nM-1000 nM)
33 | Cc1cc(C)n(-c2cc(N3C[C@H]4C[C@@H]3CO4)nc(NC3CCC(F)(F)CC3)n2)n1 [NSSy6638] | ++ (++ means 200 nM-1000 nM)
34 | Cc1cc(C)n(-c2cc(N3C[C@@H]4C[C@H]3CO4)nc(NC3CCC(F)(F)CC3)n2)n1 [NSSy6639] | + (+ means >1 uM)
35 | Cc1cc(C)n(-c2cc(N3CC4CCC(C3)O4)nc(NC3CCC(F)(F)CC3)n2)n1 [NSSy6644] | + (+ means >1 uM)
36 | Cc1ccn(-c2cc(C(C)O)nc(NC3CCC(F)(F)CC3)n2)n1 (stereo not drawn) [NSSy6650] | + (+ means >1 uM)
37 | COC(C)c1cc(-n2ccc(C)n2)nc(NC2CCC(F)(F)CC2)n1 (stereo not drawn) [NSSy6651] | + (+ means >1 uM)
38 | Cc1cc(C)n(-c2cc(-n3nc(C)cc3C)nc(NC3CCC(F)(F)CC3)n2)n1 [NSSy6654] | + (+ means >1 uM)

Row | Structure (SMILES) | SC100 (μM)
39 | COCc1cc(-n2ccc(C(F)(F)F)n2)nc(NC2CCC(F)(F)CC2)n1 [NSSy6674, N-(4,4-difluorocyclohexyl)-4-(methoxymethyl)-6-(3-(trifluoromethyl)-1H-pyrazol-1-yl)pyrimidin-2-amine] | + (+ means >1 uM)
40 | COCCOc1cc(-n2ccc(C)n2)nc(NC2CCC(F)(F)CC2)n1 [NSSy6675] | + (+ means >1 uM)
41 | Cc1ccn(-c2cc(N(C)C)nc(NC3CCC(F)(F)CC3)n2)n1 [NSSy6677] | + (+ means >1 uM)
42 | Cc1ccn(-c2cc(N3CCNCC3)nc(NC3CCC(F)(F)CC3)n2)n1 [NSSy6679] | ++ (++ means 200 nM-1000 nM)
43 | Cc1ccn(-c2cc(C(=O)O)nc(NC3CCC(F)(F)CC3)n2)n1 [NSSy6684, 2-((4,4-difluorocyclohexyl)amino)-6-(3-methyl-1H-pyrazol-1-yl)pyrimidine-4-carboxylic acid] | + (+ means >1 uM)
44 | Cc1ccn(-c2cc(OCCN(C)C)nc(NC3CCC(F)(F)CC3)n2)n1 [NSSy6686] | ++ (++ means 200 nM-1000 nM)
45 | CNc1cc(-n2ccc(C)n2)nc(NC2CCC(F)(F)CC2)n1 [NSSy6688] | ++ (++ means 200 nM-1000 nM)
46 | COC(C)c1cc(-c2nc(C)cs2)nc(NC2CCC(F)(F)CC2)n1 (stereo not drawn) [NSSy6697, N-(4,4-difluorocyclohexyl)-4-(1-methoxyethyl)-6-(4-methylthiazol-2-yl)pyrimidin-2-amine] | + (+ means >1 uM)
47 | Cc1ccn(-c2cc(N)nc(NC3CCC(F)(F)CC3)n2)n1 [NSSy6698, N2-(4,4-difluorocyclohexyl)-6-(3-methyl-1H-pyrazol-1-yl)pyrimidine-2,4-diamine] | + (+ means >1 uM)
48 | COCCNc1cc(-n2ccc(C)n2)nc(NC2CCC(F)(F)CC2)n1 [NSSy6700] | + (+ means >1 uM)
49 | Cc1csc(-c2cc(-c3nc(C)cs3)nc(NC3CCC(F)(F)CC3)n2)n1 [NSSy6704, N-(4,4-difluorocyclohexyl)-4,6-bis(4-methylthiazol-2-yl)pyrimidin-2-amine] | + (+ means >1 uM)
50 | Cc1csc(-c2cc(C#N)nc(NC3CCC(F)(F)CC3)n2)n1 [NSSy6710, 2-((4,4-difluorocyclohexyl)amino)-6-(4-methylthiazol-2-yl)pyrimidine-4-carbonitrile] | + (+ means >1 uM)
51 | COCc1cc(-c2nc(C)cs2)nc(NC2CCC(F)(F)CC2)n1 [NSSy6711, N-(4,4-difluorocyclohexyl)-4-(methoxymethyl)-6-(4-methylthiazol-2-yl)pyrimidin-2-amine] | ++ (++ means 200 nM-1000 nM)
52 | Cc1ccn(-c2cc(OCCn3nncc3C)cc(NC3CCC(F)(F)CC3)n2)n1 [NSSy6719] | +++ (+++ means <200 nM)
53 | Cc1cc(C)n(-c2cc(C#N)nc(NC3CCC(F)(F)CC3)n2)n1 [NSSy6721, 2-((4,4-difluorocyclohexyl)amino)-6-(3,5-dimethyl-1H-pyrazol-1-yl)pyrimidine-4-carbonitrile] | + (+ means >1 uM)
54 | Cc1ccn(-c2cc(C#N)nc(NC3CCC(F)(F)CC3)n2)n1 [NSSy6722, 2-((4,4-difluorocyclohexyl)amino)-6-(3-methyl-1H-pyrazol-1-yl)pyrimidine-4-carbonitrile] | + (+ means >1 uM)
55 | COCc1cc(-n2nc(C)cc2C)nc(NC2CCC(F)(F)CC2)n1 [NSSy6724] | ++ (++ means 200 nM-1000 nM)
56 | CO[C@@H](C)c1cc(-c2nc(C)cs2)nc(NC2CCC(F)(F)CC2)n1 [NSSy6729, (S)—N-(4,4-difluorocyclohexyl)-4-(1-methoxyethyl)-6-(4-methylthiazol-2-yl)pyrimidin-2-amine] | + (+ means >1 uM)
57 | Cc1csc(-c2cc(CO)cc(NC3CCC(F)(F)CC3)n2)n1 [NSSy6730, (2-((4,4-difluorocyclohexyl)amino)-6-(4-methylthiazol-2-yl)pyridin-4-yl) methanol] | ++ (++ means 200 nM-1000 nM)
